≈ marks a conversion by molar mass, not a printed value. Read-outs that look alike come from different tables or passages of the source.
How the values were obtained:
K. pneumoniae UC 58 = test: standard microplate test in BHI Agar (MIC), K. pneumoniae UC 58; type: cell-based; conditions: Klebsiella pneumoniae, UC58, 20 h, read-out: Minimum Inhibitory Concentration, K. pneumoniae UC 58
Description: (§1) Compounds were also tested in a standard microplate test in Brain Heart Infusion (BHI) Agar, at a concentration of 1 mg/ml. Incubation is at 37° and end points are read at 20 hours. Brain Heart Infusion Agar (supplied by Difco Laboratories, Detroit, Michigan, U.S.A.) has the following composition:
(§2) Compounds (7β), (7α) and (9) were tested again along with compounds (11) and (14β) against a neamine control using the same conditions as given above.

S. flexneri UC 143 = test: standard microplate test in BHI Agar (MIC), S. flexneri UC 143; type: cell-based; conditions: retest table, neamine control
Description: as §1, §2

S. aureus UC 570 = test: standard microplate test in BHI Agar (MIC), S. aureus UC 570; type: cell-based; conditions: Staphylococcus aureus, UC570, 20 h, 37°, first table, read-out: Minimum Inhibitory Concentration
Description: as §1, with “composition: […]” for “composition:”

S. schottmuelleri UC 126 = test: standard microplate test in BHI Agar (MIC), S. schottmuelleri UC 126; type: cell-based; conditions: 20 h, read-out: Minimum Inhibitory Concentration
Description: as §1, §2

S. aureus UC 746 = test: standard microplate test in BHI Agar (MIC), S. aureus UC 746; type: cell-based; conditions: Staphylococcus aureus, UC746, 20 h, 37°, first table, read-out: Minimum Inhibitory Concentration
Description: as §1, with “composition: […]” for “composition:”

P. mirabilis A-63 = test: standard microplate test in BHI Agar (MIC), P. mirabilis A-63; type: cell-based
Description: as §1, §2

Ps. aeruginosa UC 95 = test: standard microplate test in BHI Agar (MIC), Ps. aeruginosa UC 95; type: cell-based; conditions: Pseudomonas aeruginosa, UC95, 20 h, read-out: Minimum Inhibitory Concentration, Ps. aeruginosa UC 95
Description: as §1, §2

S. hemolyticus UC 152 = test: standard microplate test in BHI Agar (MIC), S. hemolyticus UC 152; type: cell-based, Streptococcus hemolyticus; conditions: Streptococcus pyogenes, UC152, 20 h, read-out: Minimum Inhibitory Concentration, S. hemolyticus UC 152
Description: as §1, §2

S. typhi TG-3 = test: standard microplate test in BHI Agar (MIC), S. typhi TG-3; type: cell-based; conditions: Salmonella enterica, 20 h, S. typhi TG-3, retest table, neamine control, read-out: Minimum Inhibitory Concentration
Description: as §1, §2

P. rettgeri UC 339 = test: standard microplate test in BHI Agar (MIC), P. rettgeri UC 339; type: cell-based; conditions: Providencia rettgeri, UC339, 20 h, read-out: Minimum Inhibitory Concentration, P. rettgeri UC 339, retest table, neamine control
Description: as §1, §2

D. pneumoniae UC 41 = test: standard microplate test in BHI Agar (MIC), D. pneumoniae UC 41; type: cell-based; conditions: Streptococcus pneumoniae, UC41, 20 h, read-out: Minimum Inhibitory Concentration, D. pneumoniae UC 41
Description: as §1, §2

St. faecalis UC 694 = test: standard microplate test in BHI Agar (MIC), St. faecalis UC 694; type: cell-based; conditions: Enterococcus faecalis, UC694, 20 h
Description: as §1, §2

P. vulgaris UC 93 = test: standard microplate test in BHI Agar (MIC), P. vulgaris UC 93; type: cell-based; conditions: Proteus vulgaris, UC93, 20 h, read-out: Minimum Inhibitory Concentration, P. vulgaris UC 93
Description: as §1, §2

E. coli UC 45 = test: standard microplate test in BHI Agar (MIC), E. coli UC 45; type: cell-based; conditions: Escherichia coli, UC45, 20 h, read-out: Minimum Inhibitory Concentration, E. coli UC 45
Description: as §1, §2

S. marcescens UC 131 = test: standard microplate test in BHI Agar (MIC), S. marcescens UC 131; type: cell-based; conditions: Serratia marcescens, UC131, 20 h, read-out: Minimum Inhibitory Concentration, S. marcescens UC 131, retest table, neamine control
Description: as §1, §2

P. morgani UC 3186 = test: standard microplate test in BHI Agar (MIC), P. morgani UC 3186; type: cell-based; conditions: 20 h, read-out: Minimum Inhibitory Concentration, P. morgani UC 3186, retest table, neamine control
Description: as §1, §2

S. aureus UC 76 = test: standard microplate test in BHI Agar (MIC), S. aureus UC 76; type: cell-based, Staphylococcus aureus; conditions: Staphylococcus aureus, UC76, 20 h
Description: as §1, §2

[1] = BHI agar, 37°, 20 h, first table
[2] = BHI agar, 37°, 20 h, first table, *run on different day
[3] = retest table, group (7β), (14β), neamine control
[4] = retest table, group (9), (11), (7α), neamine control

## NC[C@H]1O[C@H](O[C@H]2[C@H](O)[C@@H](O)[C@H](N)C[C@@H]2N)[C@H](N)[C@@H](O)[C@@H]1O [Neamine, reference compound]
K. pneumoniae UC 58; [1]
  MIC: 7.8 µg/mL (≈ 24.2 µM)
K. pneumoniae UC 58; [2]
  MIC: 15.6 µg/mL (≈ 48.4 µM)
K. pneumoniae UC 58; [3]
  MIC: 3.9 µg/mL (≈ 12.1 µM)
K. pneumoniae UC 58; [4]
  MIC: 7.8 µg/mL (≈ 24.2 µM)
S. flexneri UC 143; Shigella flexneri, UC143, 20 h, group (9), (11), (7α), read-out: Minimum Inhibitory Concentration
  MIC: 62.5 µg/mL (≈ 194 µM)
S. flexneri UC 143; group (7β), (14β)
  Minimum Inhibitory Concentration: 62.5 µg/mL
S. aureus UC 570; *run on different day
  MIC: 62.5 µg/mL (≈ 194 µM)
S. aureus UC 570
  MIC: 250 µg/mL (≈ 776 µM)
S. schottmuelleri UC 126; BHI agar, 37°, first table, *run on different day
  MIC: 62.5 µg/mL (≈ 194 µM)
S. schottmuelleri UC 126; BHI agar, 37°, first table
  MIC: 62.5 µg/mL (≈ 194 µM)
S. schottmuelleri UC 126; [3]
  MIC: 31.2 µg/mL (≈ 96.8 µM)
S. schottmuelleri UC 126; [4]
  MIC: 62.5 µg/mL (≈ 194 µM)
S. aureus UC 746; *run on different day
  MIC: 62.5 µg/mL (≈ 194 µM)
S. aureus UC 746
  MIC: 250 µg/mL (≈ 776 µM)
P. mirabilis A-63; P. mirabilis A-63, retest table, group (7β), (14β), neamine control
  Minimum Inhibitory Concentration: 250 µg/mL
P. mirabilis A-63; Proteus mirabilis, A63, 20 h, read-out: Minimum Inhibitory Concentration
  MIC: 250 µg/mL (≈ 776 µM)
Ps. aeruginosa UC 95; [1]
  MIC: > 1000 µg/mL
Ps. aeruginosa UC 95; [2]
  MIC: > 1000 µg/mL
Ps. aeruginosa UC 95; [3]
  MIC: 1000 µg/mL (≈ 3100 µM)
Ps. aeruginosa UC 95; [4]
  MIC: 1000 µg/mL (≈ 3100 µM)
S. hemolyticus UC 152; [1]
  MIC: 3.9 µg/mL (≈ 12.1 µM)
S. hemolyticus UC 152; [2]
  MIC: 7.8 µg/mL (≈ 24.2 µM)
S. hemolyticus UC 152; [3]
  MIC: 3.9 µg/mL (≈ 12.1 µM)
S. hemolyticus UC 152; [4]
  MIC: 2 µg/mL (≈ 6.2 µM)
S. typhi TG-3; group (7β), (14β)
  MIC: 15.6 µg/mL (≈ 48.4 µM)
S. typhi TG-3; group (9), (11), (7α)
  MIC: 31.2 µg/mL (≈ 96.8 µM)
P. rettgeri UC 339; group (7β), (14β)
  MIC: 1000 µg/mL (≈ 3100 µM)
P. rettgeri UC 339; group (9), (11), (7α)
  MIC: 500 µg/mL (≈ 1550 µM)
D. pneumoniae UC 41; [1]
  MIC: > 1000 µg/mL
D. pneumoniae UC 41; [2]
  MIC: > 1000 µg/mL
D. pneumoniae UC 41; [3]
  MIC: 31.2 µg/mL (≈ 96.8 µM)
D. pneumoniae UC 41; [4]
  MIC: 62.5 µg/mL (≈ 194 µM)
St. faecalis UC 694; read-out: Minimum Inhibitory Concentration, S. faecalis UC 694, retest table, group (7β), (14β), neamine control
  MIC: 500 µg/mL (≈ 1550 µM)
St. faecalis UC 694; read-out: Minimum Inhibitory Concentration, S. faecalis UC 694, retest table, group (9), (11), (7α), neamine control
  MIC: 500 µg/mL (≈ 1550 µM)
St. faecalis UC 694; read-out: Minimum Inhibitory Concentration, St. faecalis UC 694, BHI agar, 37°, 20 h, first table
  MIC: 1000 µg/mL (≈ 3100 µM)
St. faecalis UC 694; read-out: Minimum Inhibitory Concentration, St. faecalis UC 694, BHI agar, 37°, 20 h, first table, *run on different day
  MIC: 500 µg/mL (≈ 1550 µM)
P. vulgaris UC 93; [1]
  MIC: 250 µg/mL (≈ 776 µM)
P. vulgaris UC 93; [2]
  MIC: 125 µg/mL (≈ 388 µM)
P. vulgaris UC 93; [3]
  MIC: 62.5 µg/mL (≈ 194 µM)
P. vulgaris UC 93; [4]
  MIC: 15.6 µg/mL (≈ 48.4 µM)
E. coli UC 45; [1]
  MIC: 62.5 µg/mL (≈ 194 µM)
E. coli UC 45; [2]
  MIC: 125 µg/mL (≈ 388 µM)
E. coli UC 45; [3]
  MIC: 62.5 µg/mL (≈ 194 µM)
E. coli UC 45; [4]
  MIC: 62.5 µg/mL (≈ 194 µM)
S. marcescens UC 131; group (7β), (14β)
  MIC: 250 µg/mL (≈ 776 µM)
S. marcescens UC 131; group (9), (11), (7α)
  MIC: 125 µg/mL (≈ 388 µM)
P. morgani UC 3186; group (7β), (14β)
  MIC: 62.5 µg/mL (≈ 194 µM)
P. morgani UC 3186; group (9), (11), (7α)
  MIC: 31.2 µg/mL (≈ 96.8 µM)
S. aureus UC 76; read-out: Minimum Inhibitory Concentration, S. aureus 284 UC 76, BHI agar, 37°, 20 h, first table
  MIC: 125 µg/mL (≈ 388 µM)
S. aureus UC 76; read-out: Minimum Inhibitory Concentration, S. aureus 284 UC 76, BHI agar, 37°, 20 h, first table, *run on different day
  MIC: 62.5 µg/mL (≈ 194 µM)
S. aureus UC 76; read-out: Minimum Inhibitory Concentration, S. aureus UC 76, retest table, group (7β), (14β), neamine control
  MIC: 31.2 µg/mL (≈ 96.8 µM)
S. aureus UC 76; read-out: Minimum Inhibitory Concentration, S. aureus UC 76, retest table, group (9), (11), (7α), neamine control
  MIC: 31.2 µg/mL (≈ 96.8 µM)
